Assay: Evaluation of flavor-improving effects by addition of γ-aminobutyric acid and naringenin (sensory, 3 evaluators)
Type: in vivo
Set-up: key to Evaluation (grade): VP (very poor): worse than base; P (poor): difference from base not acknowledged, insufficient effects; G (good): different from base, favorable flavor; E (excellent): significantly different from base, very favorable flavor
Method: (1) Evaluation of Flavor-Improving Effects by Addition of γ-Aminobutyric Acid and Naringenin
To a base of a 0.05% aqueous solution of Rebaudio J-100, γ-aminobutyric acid (product name: 4-amino-n-butyric acid, produced by Nacalai Tesque, Inc.) and naringenin (product name: Naringenin, produced by LKT Laboratories, Inc.) were individually added in the amounts as described in the following table, and the flavor-improving effects thereof were evaluated.

[1] = naringenin alone 0.0010 ppb in base
[2] = naringenin alone 0.0100 ppb in base
[3] = naringenin alone 460.0000 ppb in base

**Q.** What does the source list for `NCCCC(=O)O` [GABA, γ-aminobutyric acid]?
**A.** Evaluation (comment in words) (GABA alone 0.0100 ppb in base): Not different from base; Evaluation (grade) (GABA alone 0.0100 ppb in base): P; Evaluation (comment in words) (GABA alone 0.1000 ppb in base): Not different from base; Evaluation (grade) (GABA alone 0.1000 ppb in base): P; Evaluation (comment in words) (GABA alone 1.0000 ppb in base): Reduced total taste; Evaluation (grade) (GABA alone 1.0000 ppb in base): P; Evaluation (grade) (GABA alone 10.0000 ppb in base): P; Evaluation (grade) (GABA alone 100.0000 ppb in base): P; Evaluation (grade) (GABA alone 500.0000 ppb in base): P; Evaluation (grade) (GABA alone 1000.0000 ppb in base): VP; Evaluation (grade) (GABA alone 10000.0000 ppb in base): VP

**Q.** What does the source list for `O=C1C[C@@H](c2ccc(O)cc2)Oc2cc(O)cc(O)c21` [naringenin]?
**A.** Evaluation (comment in words) [1]: Not different from base; Evaluation (grade) [1]: P; Evaluation (comment in words) [2]: Not different from base; Evaluation (grade) [2]: P; Evaluation (grade) (naringenin alone 0.1000 ppb in base): P; Evaluation (grade) (naringenin alone 1.0000 ppb in base): P; Evaluation (grade) (naringenin alone 10.0000 ppb in base): P; Evaluation (comment in words) [3]: Bitterness left in mouth; Evaluation (grade) [3]: P; Evaluation (grade) (naringenin alone 1000.0000 ppb in base): P; Evaluation (grade) (naringenin alone 10000.0000 ppb in base): P
